Results from patent publication US12122761B2, “2-azaspiro[3.4]octane derivatives as M4 agonists” (NOVARTIS AG, priority 2019, dated 2024).

Legend:
[1] = biological target: T1, human cloned CHRM2 receptor (M2_CHO cells) (Homo sapiens, UniProt P08172); assay: CHRM2 Ca++ Flux Assay (agonist mode, FDSS 7000EX); type: cell-based; conditions: for Emax: Percent Activity measured to EC100 of Carbachol, read-out: M2 FDSS PA; for EC50: agonist mode, geometric mean if tested more than once, read-out: M2 FDSS EC50
T1 construct: expressed in transfected cells; host or cells: CHO-K1
T1 sequence (P08172 1-466): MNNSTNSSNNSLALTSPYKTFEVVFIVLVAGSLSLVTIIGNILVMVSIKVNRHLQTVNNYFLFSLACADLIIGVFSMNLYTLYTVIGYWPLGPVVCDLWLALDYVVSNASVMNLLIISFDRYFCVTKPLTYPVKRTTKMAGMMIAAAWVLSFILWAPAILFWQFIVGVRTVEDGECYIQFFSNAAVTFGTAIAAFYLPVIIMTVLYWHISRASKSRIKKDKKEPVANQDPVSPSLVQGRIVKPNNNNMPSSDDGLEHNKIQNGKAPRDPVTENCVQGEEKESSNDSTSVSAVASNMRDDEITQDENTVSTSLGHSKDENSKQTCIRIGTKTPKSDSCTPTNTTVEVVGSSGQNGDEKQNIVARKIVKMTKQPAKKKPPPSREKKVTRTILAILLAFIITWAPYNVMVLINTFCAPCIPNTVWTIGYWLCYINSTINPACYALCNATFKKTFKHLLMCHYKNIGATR
How it was run: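 Agonist-mode Ca++ flux in CHO-K1 cells stably expressing human CHRM2, dye-loaded, then held 60 min at room temperature in buffer with 20 μM ATP before compound addition; traces read over 3 minutes. Four-parameter fit of triplicate wells; percent activity relative to Carbachol EC100.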

[2] = biological target: T2, human cloned CHRM5 receptor (M5_CHO) (Homo sapiens, UniProt P08912); assay: CHRM5 Ca++ Flux Assay (agonist mode, FDSS 7000EX); type: cell-based; conditions: for Emax: Percent Activity measured to EC100 of Carbachol, read-out: M5 FDSS PA; for EC50: agonist mode, geometric mean if tested more than once, read-out: M5 FDSS EC50
T2 construct: expressed in transfected cells; host or cells: CHO (M5_CHO)
T2 sequence (P08912 1-532): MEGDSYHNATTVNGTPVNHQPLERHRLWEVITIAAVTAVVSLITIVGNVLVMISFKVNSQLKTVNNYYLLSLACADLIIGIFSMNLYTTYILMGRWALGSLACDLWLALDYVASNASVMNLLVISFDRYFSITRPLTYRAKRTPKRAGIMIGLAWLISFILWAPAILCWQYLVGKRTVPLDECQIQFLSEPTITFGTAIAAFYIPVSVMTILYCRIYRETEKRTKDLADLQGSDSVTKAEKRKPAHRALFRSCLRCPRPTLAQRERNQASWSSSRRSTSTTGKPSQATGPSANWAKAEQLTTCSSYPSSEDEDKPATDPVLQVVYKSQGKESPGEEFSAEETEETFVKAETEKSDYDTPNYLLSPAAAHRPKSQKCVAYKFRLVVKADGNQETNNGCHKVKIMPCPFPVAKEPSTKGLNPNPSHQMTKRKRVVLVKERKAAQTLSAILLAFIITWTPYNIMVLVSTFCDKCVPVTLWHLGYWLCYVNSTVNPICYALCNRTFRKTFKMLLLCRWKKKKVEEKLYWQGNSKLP
How it was run: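 CHO-K1 cells stably expressing human M3 or M5 receptor were dye-loaded for at least 1 h in HBSS with 20 mM HEPES and 2.5 mM probenecid, then given 11-point compound doses in triplicate.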

`c1ccc(C2CCN([C@@H]3CCC4(C3)CN(c3cncnc3)C4)CC2)c(C2CCOCC2)c1` [Example 5BB, (R)-2-(pyrimidin-5-yl)-6-(4-(2-(tetrahydro-2H-pyran-4-yl)phenyl)piperidin-1-yl)-2-azaspiro[3.4]octane] showed an Emax [1] of 13%, an EC50 [1] of 739 nM and an Emax [2] of 0%. The EC50 [2] was > 25000 nM.
With `Fc1ccc(N2CC3(CC[C@@H](N4CCC(c5ccccc5C5CCOCC5)CC4)C3)C2)cn1` [Example 5CC, (R)-2-(6-fluoropyridin-3-yl)-6-(4-(2-(tetrahydro-2H-pyran-4-yl)phenyl)piperidin-1-yl)-2-azaspiro[3.4]octane] the Emax [1] was 35%, the EC50 [1] was 466 nM and the Emax [2] was 0%. For the same compound, the EC50 [2] was > 25000 nM.
With `COc1ccccc1C1CCN([C@@H]2CCC3(C2)CN(c2cnc(C)cn2)C3)CC1` [Example 5DD, (R)-6-(4-(2-methoxyphenyl)piperidin-1-yl)-2-(5-methylpyrazin-2-yl)-2-azaspiro[3.4]octane] the Emax [1] was 0%, the EC50 [1] was > 25000 nM and the Emax [2] was 0%. For the same compound, the EC50 [2] was > 25000 nM.
For `Cc1nccnc1N1CC2(CC[C@@H](N3CCC(c4ccccc4OCC(C)(C)O)CC3)C2)C1` [Example 5T, (R)-2-methyl-1-(2-(1-(2-(3-methylpyrazin-2-yl)-2-azaspiro[3.4]octan-6-yl)piperidin-4-yl)phenoxy)propan-2-ol], the Emax [1] was 0%, the Emax [2] was 0% and the EC50 [2] was > 25000 nM.
For `CC(C)(O)COc1ccccc1C1CCN([C@@H]2CCC3(C2)CN(c2ncncn2)C3)CC1` [Example 5U, (R)-1-(2-(1-(2-(1,3,5-triazin-2-yl)-2-azaspiro[3.4]octan-6-yl)piperidin-4-yl)phenoxy)-2-methylpropan-2-ol], the Emax [1] was 0%, the Emax [2] was 0% and the EC50 [2] was > 25000 nM.
`COc1ccc(F)cc1C1CCN([C@@H]2CCC3(C2)CN(c2ccnnc2)C3)CC1` [Example 5V, (R)-6-(4-(5-fluoro-2-methoxyphenyl)piperidin-1-yl)-2-(pyridazin-4-yl)-2-azaspiro[3.4]octane] was tested, and the Emax [1] was 0%, the Emax [2] was 0% and the EC50 [2] was > 25000 nM.
`Fc1cccc(C2CCN([C@@H]3CCC4(C3)CN(c3cncnc3)C4)CC2)c1OC1COC1` [Example 5W, (R)-6-(4-(3-fluoro-2-(oxetan-3-yloxy)phenyl)piperidin-1-yl)-2-(pyrimidin-5-yl)-2-azaspiro[3.4]octane] showed an Emax [1] of 16%, an EC50 [1] of 57 nM and an Emax [2] of 0%. The EC50 [2] was > 25000 nM.
With `COCCOc1ccccc1C1CCN([C@@H]2CCC3(C2)CN(c2cccnn2)C3)CC1` [Example 5X, (R)-6-(4-(2-(2-methoxyethoxy)phenyl)piperidin-1-yl)-2-(pyridazin-3-yl)-2-azaspiro[3.4]octane] the Emax [1] was 0%, the Emax [2] was 0% and the EC50 [2] was > 25000 nM.
With `COCCOc1ccccc1C1CCN([C@@H]2CCC3(C2)CN(c2cnc(C)cn2)C3)CC1` [Example 5Y, (R)-6-(4-(2-(2-methoxyethoxy)phenyl)piperidin-1-yl)-2-(5-methylpyrazin-2-yl)-2-azaspiro[3.4]octane] the Emax [1] was 0%, the EC50 [1] was < 26000 nM and the Emax [2] was 0%. The EC50 [2] was > 25000 nM.
In the case of `COCCOc1ccccc1C1CCN([C@@H]2CCC3(C2)CN(c2ccnnc2)C3)CC1` [Example 5Z, (R)-6-(4-(2-(2-methoxyethoxy)phenyl)piperidin-1-yl)-2-(pyridazin-4-yl)-2-azaspiro[3.4]octane], the Emax [1] is reported as 0%, the Emax [2] is reported as 0% and the EC50 [2] is reported as > 25000 nM.
With `COc1ccc(F)cc1C1CCN([C@@H]2CCC3(C2)CN(C(=O)C2COC2)C3)CC1` [Example 6A, (R)-(6-(4-(5-fluoro-2-methoxyphenyl)piperidin-1-yl)-2-azaspiro[3.4]octan-2-yl)(oxetan-3-yl)methanone] the Emax [1] was 10%, the EC50 [1] was 32 nM and the Emax [2] was 0%. The EC50 [2] was > 25000 nM.
For `O=C(C1COC1)N1CC2(CC[C@@H](N3CCC(c4ccc(F)cc4OC(F)F)CC3)C2)C1` [Example 6B, (R)-(6-(4-(2-(difluoromethoxy)-4-fluorophenyl)piperidin-1-yl)-2-azaspiro[3.4]octan-2-yl)(oxetan-3-yl)methanone], the Emax [1] was 0%, the Emax [2] was 0% and the EC50 [2] was > 25000 nM.
In the case of `CC(C)Oc1cc(F)ccc1C1CCN([C@@H]2CCC3(C2)CN(C(=O)C2COC2)C3)CC1` [Example 6D, (R)-(6-(4-(4-fluoro-2-isopropoxyphenyl)piperidin-1-yl)-2-azaspiro[3.4]octan-2-yl)(oxetan-3-yl)methanone], the Emax [1] is reported as 0%, the Emax [2] is reported as 0% and the EC50 [2] is reported as > 25000 nM.
`O=C(N1CC2(CC[C@@H](N3CCC(c4ccccc4C4CCOCC4)CC3)C2)C1)C1(F)CC1` [Example 6E, (R)-(1-fluorocyclopropyl)(6-(4-(2-(tetrahydro-2H-pyran-4-yl)phenyl)piperidin-1-yl)-2-azaspiro[3.4]octan-2-yl)methanone] was tested, and the Emax [1] was 0%, the Emax [2] was 0% and the EC50 [2] was > 25000 nM.
`O=C(C1COC1)N1CC2(CC[C@@H](N3CCC(c4ccccc4OC4CC4)CC3)C2)C1` [Example 7A, (R)-(6-(4-(2-cyclopropoxyphenyl)piperidin-1-yl)-2-azaspiro[3.4]octan-2-yl)(oxetan-3-yl)methanone] was tested, and the Emax [1] was 55%, the EC50 [1] was 142 nM and the Emax [2] was 0%. The EC50 [2] was > 25000 nM.
With `CC(C)(F)COc1ccccc1C1CCN([C@@H]2CCC3(C2)CN(C(=O)C2COC2)C3)CC1` [Example 7B, (R)-(6-(4-(2-(2-fluoro-2-methylpropoxy)phenyl)piperidin-1-yl)-2-azaspiro[3.4]octan-2-yl)(oxetan-3-yl)methanone] the Emax [1] was 77%, the EC50 [1] was 651 nM and the Emax [2] was 0%. The EC50 [2] was > 25000 nM.
For `O=C(C1COC1)N1CC2(CC[C@@H](N3CCC(c4ccccc4Oc4nccs4)CC3)C2)C1` [Example 7C, (R)-oxetan-3-yl(6-(4-(2-(thiazol-2-yloxy)phenyl)piperidin-1-yl)-2-azaspiro[3.4]octan-2-yl)methanone], the Emax [1] was 0%, the Emax [2] was 0% and the EC50 [2] was > 25000 nM.
Work on `CC(C)(O)CCOc1ccccc1C1CCN([C@@H]2CCC3(C2)CN(C(=O)C2COC2)C3)CC1` [Example 7CC, (R)-(6-(4-(2-(3-hydroxy-3-methylbutoxy)phenyl)piperidin-1-yl)-2-azaspiro[3.4]octan-2-yl)(oxetan-3-yl)methanone] yielded an Emax [1] of 0%, an Emax [2] of 9% and an EC50 [2] of 2010 nM.
`N#CCCOc1ccccc1C1CCN([C@@H]2CCC3(C2)CN(C(=O)C2COC2)C3)CC1` [Example 7D, (R)-3-(2-(1-(2-(oxetane-3-carbonyl)-2-azaspiro[3.4]octan-6-yl)piperidin-4-yl)phenoxy)propanenitrile] was tested, and the Emax [1] was 31%, the EC50 [1] was 92 nM and the Emax [2] was 16%. The EC50 [2] was 2200 nM.
In the case of `O=C(C1COC1)N1CC2(CC[C@@H](N3CCC(c4ccccc4OCCOC(F)(F)F)CC3)C2)C1` [Example 7DD, (R)-oxetan-3-yl(6-(4-(2-(2-(trifluoromethoxy)ethoxy)phenyl)piperidin-1-yl)-2-azaspiro[3.4]octan-2-yl)methanone], the Emax [1] is reported as 0%, the Emax [2] is reported as 18% and the EC50 [2] is reported as 1120 nM.
With `O=C(C1COC1)N1CC2(CC[C@@H](N3CCC(c4ccccc4OC[C@@H]4CCOC4)CC3)C2)C1` [Example 7E, oxetan-3-yl((R)-6-(4-(2-(((R)-tetrahydrofuran-3-yl)methoxy)phenyl)piperidin-1-yl)-2-azaspiro[3.4]octan-2-yl)methanone] the Emax [1] was 23%, the EC50 [1] was 141 nM and the Emax [2] was 13%. For the same compound, the EC50 [2] was 1560 nM.
`O=C(C1COC1)N1CC2(CC[C@@H](N3CCC(c4ccccc4OCCOC4COC4)CC3)C2)C1` [Example 7EE, (R)-oxetan-3-yl(6-(4-(2-(2-(oxetan-3-yloxy)ethoxy)phenyl)piperidin-1-yl)-2-azaspiro[3.4]octan-2-yl)methanone] was tested, and the Emax [1] was 17%, the EC50 [1] was 464 nM and the Emax [2] was 0%. The EC50 [2] was > 25000 nM.
